Experimental data reported in the NIST ThermoML archive (doi:10.1021/je0501890).
Numbers after ± are expanded uncertainties.

Assay: xn = mol fraction of the nth substance listed
Details: 101.33 kPa, Liquid

Question: Which results are given for ClC=C(Cl)Cl [trichloroethene] + CCCCCCCO?
Answer: mass density (293.15 K, x2 = 0.0507): 1412.78 ± 1.2 kg/m3; viscosity (293.15 K, x2 = 0.0927): 0.671 ± 0.01 mPa·s; mass density (293.15 K, x2 = 0.0992): 1367.53 ± 1.1 kg/m3; mass density (293.15 K, x2 = 0.1569): 1317.05 ± 1.1 kg/m3; viscosity (293.15 K, x2 = 0.201): 0.883 ± 0.012 mPa·s; mass density (293.15 K, x2 = 0.2026): 1279.18 ± 0.99 kg/m3; mass density (293.15 K, x2 = 0.2558): 1237.46 ± 0.92 kg/m3; viscosity (293.15 K, x2 = 0.256): 1.017 ± 0.014 mPa·s; viscosity (293.15 K, x2 = 0.304): 1.158 ± 0.016 mPa·s; mass density (293.15 K, x2 = 0.3109): 1196.47 ± 0.85 kg/m3; mass density (293.15 K, x2 = 0.3618): 1160.63 ± 0.8 kg/m3; mass density (293.15 K, x2 = 0.3997): 1134.97 ± 0.77 kg/m3; viscosity (293.15 K, x2 = 0.4057): 1.535 ± 0.021 mPa·s; mass density (293.15 K, x2 = 0.43): 1115.18 ± 0.74 kg/m3; viscosity (293.15 K, x2 = 0.5098): 2.05 ± 0.027 mPa·s; mass density (293.15 K, x2 = 0.51): 1065.33 ± 0.68 kg/m3; viscosity (293.15 K, x2 = 0.5508): 2.307 ± 0.031 mPa·s; mass density (293.15 K, x2 = 0.5514): 1040.91 ± 0.64 kg/m3; viscosity (293.15 K, x2 = 0.6022): 2.648 ± 0.036 mPa·s; mass density (293.15 K, x2 = 0.6149): 1005.06 ± 0.58 kg/m3; mass density (293.15 K, x2 = 0.6574): 982.15 ± 0.56 kg/m3; mass density (293.15 K, x2 = 0.7071): 956.39 ± 0.56 kg/m3; viscosity (293.15 K, x2 = 0.7077): 3.52 ± 0.048 mPa·s; mass density (293.15 K, x2 = 0.7571): 931.38 ± 0.57 kg/m3; mass density (293.15 K, x2 = 0.8016): 909.97 ± 0.58 kg/m3; viscosity (293.15 K, x2 = 0.802): 4.51 ± 0.061 mPa·s; viscosity (293.15 K, x2 = 0.8699): 5.313 ± 0.07 mPa·s; mass density (293.15 K, x2 = 0.8728): 877.14 ± 0.61 kg/m3; viscosity (293.15 K, x2 = 0.893): 5.624 ± 0.073 mPa·s; mass density (293.15 K, x2 = 0.9405): 847.47 ± 0.64 kg/m3; mass density (298.15 K, x2 = 0.0507): 1404.82 ± 1.2 kg/m3; viscosity (298.15 K, x2 = 0.0927): 0.635 ± 0.009 mPa·s; mass density (298.15 K, x2 = 0.0992): 1359.9 ± 1.1 kg/m3; mass density (298.15 K, x2 = 0.1569): 1309.82 ± 1 kg/m3; viscosity (298.15 K, x2 = 0.201): 0.826 ± 0.012 mPa·s; mass density (298.15 K, x2 = 0.2026): 1272.23 ± 0.97 kg/m3; mass density (298.15 K, x2 = 0.2558): 1230.87 ± 0.91 kg/m3; viscosity (298.15 K, x2 = 0.256): 0.949 ± 0.013 mPa·s; viscosity (298.15 K, x2 = 0.304): 1.073 ± 0.015 mPa·s; mass density (298.15 K, x2 = 0.3109): 1190.18 ± 0.84 kg/m3; mass density (298.15 K, x2 = 0.3618): 1154.67 ± 0.79 kg/m3; mass density (298.15 K, x2 = 0.3997): 1129.21 ± 0.76 kg/m3; viscosity (298.15 K, x2 = 0.4057): 1.397 ± 0.019 mPa·s; mass density (298.15 K, x2 = 0.43): 1109.55 ± 0.73 kg/m3; viscosity (298.15 K, x2 = 0.5098): 1.838 ± 0.025 mPa·s; mass density (298.15 K, x2 = 0.51): 1060.09 ± 0.68 kg/m3; viscosity (298.15 K, x2 = 0.5508): 2.046 ± 0.027 mPa·s; mass density (298.15 K, x2 = 0.5514): 1035.82 ± 0.63 kg/m3; viscosity (298.15 K, x2 = 0.6022): 2.342 ± 0.031 mPa·s; mass density (298.15 K, x2 = 0.6149): 1000.28 ± 0.57 kg/m3; mass density (298.15 K, x2 = 0.6574): 977.54 ± 0.57 kg/m3; mass density (298.15 K, x2 = 0.7071): 951.95 ± 0.57 kg/m3; viscosity (298.15 K, x2 = 0.7077): 3.065 ± 0.041 mPa·s; mass density (298.15 K, x2 = 0.7571): 927.1 ± 0.57 kg/m3; mass density (298.15 K, x2 = 0.8016): 905.84 ± 0.58 kg/m3; viscosity (298.15 K, x2 = 0.802): 3.865 ± 0.052 mPa·s; viscosity (298.15 K, x2 = 0.8699): 4.537 ± 0.061 mPa·s; mass density (298.15 K, x2 = 0.8728): 873.27 ± 0.61 kg/m3; viscosity (298.15 K, x2 = 0.893): 4.804 ± 0.065 mPa·s; mass density (298.15 K, x2 = 0.9405): 843.79 ± 0.64 kg/m3; mass density (303.15 K, x2 = 0.0507): 1396.73 ± 1.2 kg/m3; viscosity (303.15 K, x2 = 0.0927): 0.6 ± 0.009 mPa·s; mass density (303.15 K, x2 = 0.0992): 1352.18 ± 1.1 kg/m3; mass density (303.15 K, x2 = 0.1569): 1302.52 ± 1 kg/m3; viscosity (303.15 K, x2 = 0.201): 0.763 ± 0.011 mPa·s; mass density (303.15 K, x2 = 0.2026): 1265.25 ± 0.96 kg/m3; mass density (303.15 K, x2 = 0.2558): 1224.15 ± 0.89 kg/m3; viscosity (303.15 K, x2 = 0.256): 0.875 ± 0.012 mPa·s; viscosity (303.15 K, x2 = 0.304): 0.989 ± 0.014 mPa·s; mass density (303.15 K, x2 = 0.3109): 1183.85 ± 0.83 kg/m3; mass density (303.15 K, x2 = 0.3618): 1148.63 ± 0.78 kg/m3; mass density (303.15 K, x2 = 0.3997): 1123.37 ± 0.75 kg/m3; viscosity (303.15 K, x2 = 0.4057): 1.28 ± 0.017 mPa·s; mass density (303.15 K, x2 = 0.43): 1103.85 ± 0.72 kg/m3; viscosity (303.15 K, x2 = 0.5098): 1.662 ± 0.022 mPa·s; mass density (303.15 K, x2 = 0.51): 1054.79 ± 0.67 kg/m3; viscosity (303.15 K, x2 = 0.5508): 1.839 ± 0.025 mPa·s; mass density (303.15 K, x2 = 0.5514): 1030.7 ± 0.62 kg/m3; viscosity (303.15 K, x2 = 0.6022): 2.082 ± 0.028 mPa·s; mass density (303.15 K, x2 = 0.6149): 995.43 ± 0.57 kg/m3; mass density (303.15 K, x2 = 0.6574): 972.87 ± 0.57 kg/m3; mass density (303.15 K, x2 = 0.7071): 947.47 ± 0.57 kg/m3; viscosity (303.15 K, x2 = 0.7077): 2.672 ± 0.036 mPa·s; mass density (303.15 K, x2 = 0.7571): 922.8 ± 0.58 kg/m3; mass density (303.15 K, x2 = 0.8016): 901.69 ± 0.59 kg/m3; viscosity (303.15 K, x2 = 0.802): 3.333 ± 0.045 mPa·s; viscosity (303.15 K, x2 = 0.8699): 3.89 ± 0.053 mPa·s; mass density (303.15 K, x2 = 0.8728): 869.35 ± 0.61 kg/m3; viscosity (303.15 K, x2 = 0.893): 4.112 ± 0.057 mPa·s; mass density (303.15 K, x2 = 0.9405): 840.09 ± 0.64 kg/m3
